In article PMC6198068, “Discovery of a Novel Nav1.7 Inhibitor From Cyriopagopus albostriatus Venom With Potent Analgesic Efficacy” (Frontiers in Pharmacology, 2018):
Where a SMILES comes first, the peptide text is derived from it. Bridges are numbered along the chain shown (N, C = ends).

Assays:
Nav1.7 = target: T1, Nav1.7 (Homo sapiens, UniProt Q15858); test: Rate of toxin dissociation from Nav1.7 at depolarizing pulses; assay type: cell-based; details: 1 μM, mean ± SEM, n = 6–11 cells
T1 construct: expressed in transfected cells; host or cells: HEK293T
From the text: (§1) The cDNA genes encoding rat Nav1.4 and human Nav1.7 were subcloned into vectors pRGB4 and pcDNA3.1-mod, respectively. Mutations of rNav1.4 (N655D, Q657E, and N655D/Q657E) and hNav1.7 (D816N, E818Q, and D816N/E818Q) were constructed using the Gene Tailor Site-Directed Mutagenesis system (Invitrogen, Carlsbad, CA, United States), according to the manufacturer’s instructions. Nav1.2–Nav1.7 and mutant plasmids together with eGFP were transiently transfected into HEK293T cells while Nav1.8 together with eGFP was transiently transfected into ND7/23 cells by Lipofectamine 2000 (Invitrogen, Carlsbad, CA, United States). Additionally, plasmids β1- and β2-eGFP encoding the human β1 and β2 subunits, respectively, were co-transfected with those encoding WT Nav1.7 and Nav1.7 mutations in HEK293T cells. Human Nav1.9 was transfected into ND7/23 cells according to a previous report ([Zhou et al., 2017]). […] Cells with green fluorescent protein fluorescence were selected for whole-cell patch-clamp recordings 24 h after transfection.
(§2) Whole-cell patch-clamp recordings were performed at room temperature (20–25°C) using an EPC 10 USB Patch Clamp Amplifier (HEKA, Elektronik, Lambrecht, Germany). […] Data was analyzed by software Igo Pro 6.10A (WaveMetrics, Lake Oswego, OR, United States), SigmaPlot 10.0 (Sigma-Aldrich, St. Louis, MO, United States), OriginPro 8 (OriginLab Corp., Northampton, MA, United States), and GraphPad Prism 5 (GraphPad Software, San Diego, CA, United States). […]
Fast inactivation time constants were calculated by fitting current decay traces with a single exponential function using the I–V protocol described above. Recovery from fast-inactivation (repriming) was assessed by using a two-pulse protocol consisting of a depolarizing pulse to −10 mV for 50 ms to inactivate channels, followed by a step to −100 mV of variable duration (1 to 1024 ms) to promote recovery, and 50 ms test pulse to −10 mV to assess availability of channels. […]

[1] = system: formalin-induced paw licking in mice; test: Formalin-induced paw licking; assay type: in vivo, ICR mice; details: for paw licking time, Phase I: control 90.3 ± 6.6 s; for paw licking time, Phase I / paw licking time, Phase II: mean ± SEM, n = 6–8; for paw licking time, Phase II: control 197.7 ± 20.7 s
Description: The ICR mice (18–22 g) used in this study were purchased from the Experimental Animal Center of SLac-kinda (Changsha, China). The animals were maintained at 20–25°C and freely allowed to standard rodent chow and water ad libitum. Ethical approval for in vivo experiments in animals was approved by the Animal Care and Use Committee (ACUC) at the Hunan Province Animal Management Office (HPAMO).
A formalin test was performed according to the previous method ([Owoyele et al., 2005]). […] The time spent licking the injected paw by each mouse was recorded by a digital stopwatch during Phase I (0–15 min post-injection) and Phase II (15–40 min post-injection).

Nav1.7/D816N/E818Q = test: Whole-cell patch-clamp, Nav1.7/D816N/E818Q in HEK293T cells; assay type: cell-based, human; details: 1 μM, n = 5 cells
From the text: as §1, with “cells.” for “cells. Human Nav1.9 was transfected into ND7/23 cells according to a previous report ([Zhou et al., 2017]).”
as §2

T1 sequence (O60939 30-215): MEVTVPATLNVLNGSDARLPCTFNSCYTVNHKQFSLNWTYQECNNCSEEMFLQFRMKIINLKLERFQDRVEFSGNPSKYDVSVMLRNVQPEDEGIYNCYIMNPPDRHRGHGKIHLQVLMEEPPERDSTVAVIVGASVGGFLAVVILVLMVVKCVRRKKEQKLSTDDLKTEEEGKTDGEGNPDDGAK
T1 sequence (Q15858 other isoform, or with tags, fused parts or gaps): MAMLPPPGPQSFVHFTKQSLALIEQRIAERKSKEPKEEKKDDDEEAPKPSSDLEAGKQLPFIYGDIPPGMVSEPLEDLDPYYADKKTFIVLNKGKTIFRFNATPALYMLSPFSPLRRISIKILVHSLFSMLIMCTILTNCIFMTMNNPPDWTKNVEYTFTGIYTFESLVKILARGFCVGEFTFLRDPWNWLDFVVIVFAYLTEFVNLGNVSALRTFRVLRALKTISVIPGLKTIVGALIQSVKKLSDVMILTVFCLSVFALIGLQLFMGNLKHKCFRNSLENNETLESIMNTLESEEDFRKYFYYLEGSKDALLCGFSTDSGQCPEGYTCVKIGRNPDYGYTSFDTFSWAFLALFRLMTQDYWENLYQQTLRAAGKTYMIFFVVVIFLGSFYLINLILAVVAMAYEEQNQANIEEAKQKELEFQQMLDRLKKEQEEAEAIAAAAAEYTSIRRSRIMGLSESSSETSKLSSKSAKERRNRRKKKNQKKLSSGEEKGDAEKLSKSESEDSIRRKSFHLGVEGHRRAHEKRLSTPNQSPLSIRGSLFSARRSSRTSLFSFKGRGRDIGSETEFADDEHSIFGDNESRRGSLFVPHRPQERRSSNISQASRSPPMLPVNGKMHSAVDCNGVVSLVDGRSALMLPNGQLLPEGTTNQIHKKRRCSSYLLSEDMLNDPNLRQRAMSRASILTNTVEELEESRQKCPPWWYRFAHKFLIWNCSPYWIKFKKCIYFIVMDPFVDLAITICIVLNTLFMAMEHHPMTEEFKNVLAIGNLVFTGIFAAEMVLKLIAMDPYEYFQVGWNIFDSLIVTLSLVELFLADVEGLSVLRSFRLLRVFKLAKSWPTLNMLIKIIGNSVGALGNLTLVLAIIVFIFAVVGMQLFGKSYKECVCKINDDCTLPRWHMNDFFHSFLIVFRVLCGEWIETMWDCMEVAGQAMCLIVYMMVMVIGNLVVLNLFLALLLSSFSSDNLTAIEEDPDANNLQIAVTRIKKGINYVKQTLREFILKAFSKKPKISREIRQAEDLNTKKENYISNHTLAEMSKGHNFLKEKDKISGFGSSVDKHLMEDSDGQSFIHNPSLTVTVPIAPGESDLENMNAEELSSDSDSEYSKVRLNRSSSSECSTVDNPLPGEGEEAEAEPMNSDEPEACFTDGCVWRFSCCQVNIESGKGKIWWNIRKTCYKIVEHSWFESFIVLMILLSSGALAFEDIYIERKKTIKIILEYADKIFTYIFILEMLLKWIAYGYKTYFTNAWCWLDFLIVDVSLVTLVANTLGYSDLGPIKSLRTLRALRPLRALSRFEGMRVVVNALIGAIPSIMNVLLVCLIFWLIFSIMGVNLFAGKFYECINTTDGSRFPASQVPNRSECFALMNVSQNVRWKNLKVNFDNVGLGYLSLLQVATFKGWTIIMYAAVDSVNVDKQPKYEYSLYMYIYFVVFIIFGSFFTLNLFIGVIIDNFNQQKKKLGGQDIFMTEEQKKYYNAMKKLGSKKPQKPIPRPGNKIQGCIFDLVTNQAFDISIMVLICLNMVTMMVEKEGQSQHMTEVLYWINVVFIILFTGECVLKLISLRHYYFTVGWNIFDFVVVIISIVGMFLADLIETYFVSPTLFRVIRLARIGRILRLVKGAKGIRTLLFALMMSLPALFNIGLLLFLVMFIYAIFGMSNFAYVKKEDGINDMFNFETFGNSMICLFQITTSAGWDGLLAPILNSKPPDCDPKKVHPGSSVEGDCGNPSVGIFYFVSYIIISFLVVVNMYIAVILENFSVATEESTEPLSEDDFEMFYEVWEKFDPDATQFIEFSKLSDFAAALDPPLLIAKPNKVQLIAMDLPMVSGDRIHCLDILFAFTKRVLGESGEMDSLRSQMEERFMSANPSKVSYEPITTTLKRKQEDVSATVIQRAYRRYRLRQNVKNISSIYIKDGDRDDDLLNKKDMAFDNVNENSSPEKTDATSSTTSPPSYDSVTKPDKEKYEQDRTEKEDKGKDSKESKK
T1 sequence (Q07699 19-218, further chain): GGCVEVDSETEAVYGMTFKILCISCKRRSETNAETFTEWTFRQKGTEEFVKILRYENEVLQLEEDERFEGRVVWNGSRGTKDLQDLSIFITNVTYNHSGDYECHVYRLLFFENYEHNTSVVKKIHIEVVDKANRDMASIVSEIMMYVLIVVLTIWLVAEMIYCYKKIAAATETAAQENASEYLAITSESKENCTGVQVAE

Question: With `CC(C)C[C@H](NC(=O)[C@H](CC(=O)O)NC(=O)[C@H](Cc1ccc(O)cc1)NC(=O)[C@H](CCCCN)NC(=O)[C@@H]1CSSC[C@@H]2NC(=O)[C@H](CCCCN)NC(=O)[C@H](CC(=O)O)NC(=O)[C@H](CC(N)=O)NC(=O)[C@H](CO)NC(=O)[C@@H]3CCCN3C(=O)[C@H](CC(N)=O)NC(=O)[C@@H]3CSSC[C@H](NC(=O)[C@H](C(C)C)NC(=O)[C@H](CC(C)C)NC(=O)[C@H](CO)NC(=O)[C@H](CO)NC(=O)[C@H](CO)NC(=O)[C@H](CCCCN)NC(=O)[C@H](CSSC[C@H](NC(=O)[C@H](C)N)C(=O)N[C@@H](CC(C)C)C(=O)NCC(=O)N[C@@H](Cc4ccccc4)C(=O)NCC(=O)N[C@@H](CCC(=O)O)C(=O)N[C@@H](CCCCN)C(=O)N3)NC2=O)C(=O)N[C@@H](CO)C(=O)N[C@@H](CCC(N)=O)C(=O)N[C@@H](CCCCN)C(=O)N[C@@H](Cc2c[nH]cn2)C(=O)N[C@@H](CCCCN)C(=O)N[C@@H](Cc2c[nH]c3ccccc23)C(=O)N1)C(=O)O` [Ca2a] (H-ACLGFGEKCNPSNDKCCKSSSLVCSQKHKWCKYDL-OH; disulfide 2-17, 9-24, 16-31 (inferred); N-terminus and C-terminus assumed) as the compound, how does the “dissociation time constant from Nav1.7” value (Nav1.7; at 60 mV) read?
Answer: 547.2 ± 24.3 ms

Question: And the “dissociation time constant from Nav1.7” value (Nav1.7; at 80 mV)?
Answer: 347.9 ± 29.2 ms

Question: What about the “dissociation time constant from Nav1.7” value (Nav1.7; at 100 mV) of the same compound?
Answer: 169.8 ± 25.6 ms

Question: And the “paw licking time, Phase I” value ([1]; 0–15 min, 50 μg/kg i.p. 30 min before 5% formalin)?
Answer: 80.1 ± 4.6 s

Question: And the “paw licking time, Phase I” value ([1]; 0–15 min, 100 μg/kg i.p. 30 min before 5% formalin)?
Answer: 79.4 ± 9.5 s

Question: And the “paw licking time, Phase I” value ([1]; 0–15 min, 200 μg/kg i.p. 30 min before 5% formalin)?
Answer: 75.6 ± 7.7 s

Question: And the “analgesic effect on Phase I compared to control” value ([1]; 0–15 min, Ca2a 50, 100, 200 μg/kg, morphine 100 μg/kg, i.p.)?
Answer: no analgesic effect

Question: And the “paw licking time, Phase II” value ([1]; 15–40 min, 50 μg/kg i.p. 30 min before 5% formalin)?
Answer: 100.9 ± 16.2 s

Question: And the “paw licking time, Phase II” value ([1]; 15–40 min, 100 μg/kg i.p. 30 min before 5% formalin)?
Answer: 67.2 ± 20.2 s

Question: What about the “paw licking time, Phase II” value ([1]; 15–40 min, 200 μg/kg i.p. 30 min before 5% formalin) of the same compound?
Answer: 40.5 ± 7.1 s

Question: What about the “analgesic effect on Phase II” value ([1]; 15–40 min, 50, 100, 200 μg/kg i.p.) of the same compound?
Answer: significant analgesic effect in a dose-dependent manner

Question: What about the “analgesia relative to morphine, formalin test” value ([1]; formalin, hot plate and writhing together, Ca2a vs morphine) of the same compound?
Answer: dose-dependently equipotent or stronger analgesia than morphine

Question: What about the “activity on Nav1.7/D816N/E818Q” value (Nav1.7/D816N/E818Q) of the same compound?
Answer: no activity
